According to US7683061B2, “Triazine dimers for the treatment of autoimmune diseases” (ProMetic BioSciences Inc., priority 2003, dated 2010):
Read-outs that look alike come from different tables or passages of the source.

Tests used:
PBML cytotoxicity (MTT) = type: cell-based; conditions: human
Text: PBML were obtained from the peripheral blood of healthy volunteers. Blood was submitted to gradient centrifugation with Lympholyte-poly (Cedarlane, Hornby, Canada). The layer, which contains the mononuclear leukocytes, was collected and the cells washed three times in PBS. Cells were then suspended in RPMI (Gibco, Burlington, Canada) supplemented with […] (cyclone, Logan USA). Viability was greater than 99% as determined by trypan blue exclusion.
PBML were resuspended at 2×10^6 cells mL. 100 μL of PBML (2×10^5 cells) were incubated in a 96-well microtiter plate for 48 h in the presence or absence of compound or protein A. Cells were quiescent or stimulated with concanavalin A (ConA; T-cells) or pokeweed mitogen (PWM; B-cells). After incubation, cells were treated with MTT (cytotoxicity) or pulsed with 1 μCi of [^3]-thymidine (DNA synthesis), [^3H]-uridine (RNA synthesis) or [^3]-leucine (protein synthesis) for 6 h. Plates were harvested on a Tomteck and counted on a Microbeta β-counter.

[1] = biological target: TNFα / p55 TNFα receptor (CD120a) (Homo sapiens, UniProt P01375); test: Binding ELISA: TNF-α binding to plastic coated TNF-R1; conditions: for inhibition at 100 µM: 10^−4 M; for inhibition at 10 µM: 10^−5 M
Description: (§1) Compounds were tested for their ability to bind to TNFα or inhibit the interaction of TNFα with its respective receptors; p55 and p75 TNFα receptor. Three binding ELISA assays were undertaken as described by Mancini et al. Biochemical Pharmacology 58, 851-859 (1999). TNFα or receptor (1 μg/mL) was coated on a 96-well plate Maxisorp, overnight at 4° C. After incubation, unbound TNFα or p55 TNFα receptor or p75 TNFα receptor was removed and the plate washed three times with PBS. The plate was then incubated with 100 μL/well of a 2% BSA solution for 1 h at 37° C. to block non specific protein binding. After incubation, the plate was washed three times with PBS. Biotinylated recombinant human TNFα p55 or p75 receptor or biotinylated recombinant human TNFα was added to the wells in the presence or absence of compounds. The plate was incubated for 1 h at 37° C. After incubation, the plate was washed three times with PBS to remove unbound labeled p55 or p75 receptor or recombinant human TNFα. 100 μL of avidin-HRP (diluted 1/2000 in PBS-0.1% BSA) was added to each well and incubated 1 h at 37° C. Bound p55 or p75 receptor or recombinant human TNFα was detected by the addition of 200 μL of 3,3′,5,5′-tetramethylbenzidine (TMB) per well for 15 min. The plate was then read at 655 nm on a EL 800 universal Microplate reader (Bio-Tek, Mississauga, Canada). Data was analyzed in Microsoft Excel and recorded as the percentage of inhibition of p55 or p75 binding to TNFα or TNFα binding to RI (p55) or RII (p75).

[2] = system: mice, oxazolone-induced DTH; test: Oxazolone-induced delayed-type hypersensitivity (DTH); type: in vivo; conditions: for inflammation as seen by ear thickness: administered orally at day 0, 1 and 2, FIG. 8
Description: Compounds were tested for their ability to treat oxazolone-induced delayed-type hypersensitivity (DTH) in mice. On day 0, mice were sensitized with 100 μL of oxazolone in 5% acetone. On day 0, 1 and 2, mice were treated by intravenous or oral administrations of the vehicle (control) or methotrexate (MTX, positive control/IV) or hydrocortisone (positive control/PO) or the compound at 50 mg/kg to 300 mg/kg of body weight. Mice were challenged with an application of 50 μL of oxazolone on the surface of the right ear (first challenge, day 3; second challenge, day 10). Ear thickness was measured on day 4 to day 7, and on day 11 to 14. Redness and crust formation was also observed. Mice were sacrificed on day 14. TDTH (CD4) cells play an important role in regulating the intensity of the DTH response. Compounds may exert an inhibitory influence on the DTH response through its inhibition of T-cell activation and DNA, RNA and or protein synthesis.

[3] = biological target: TNFα / p75 TNFα receptor (CD120b) (Homo sapiens, UniProt P01375); test: Binding ELISA: TNF-α binding to plastic coated TNF-R2; conditions: for inhibition at 100 µM: 10^−4 M; for inhibition at 10 µM: 10^−5 M
Description: as §1

[4] = biological target: T1, Fc portion of human IgG (binding of protein A to human IgG); test: Competitive protein A binding ELISA
T1 construct: fused on or other part: Horseradish peroxidase chemically conjugated to the IgG (HRP-IgG)
How it was run: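 Protein A coated overnight at 4 °C and blocked with 2% BSA. Compound, diluted in PBS or PBS-20% DMSO, competed with HRP-conjugated human IgG for 1 h at 37 °C. Bound IgG detected with ABTS at 405 nm; IC50 is the concentration inhibiting 50% of protein A binding.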

[5] = Table 1, PBS-20% DMSO, read-out: IC50 (μM): Assay in PBS-20% DMSO

TNFα / p75 TNFα receptor (CD120b), sequence (P01375 77-233 limits assumed): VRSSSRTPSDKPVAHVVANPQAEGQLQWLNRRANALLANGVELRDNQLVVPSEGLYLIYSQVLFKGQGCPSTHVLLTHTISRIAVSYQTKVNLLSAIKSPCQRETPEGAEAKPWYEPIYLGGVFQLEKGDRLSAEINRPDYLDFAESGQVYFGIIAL
TNFα / p55 TNFα receptor (CD120a), sequence (P01375 77-233 limits assumed): as above

IC50 ([4]; Table 1, PBS, read-out: IC50 (μM): Assay in PBS) [µM]	IC50 ([4]; Table 2, PBS-20% DMSO, n = 5 or 6, read-out: IC50 (n = 5 or 6) PBS-20% DMSO) [µM]	IC50 ([4]; Table 2, PBS, n = 5 or 6, read-out: IC50 (n = 5 or 6) PBS) [µM]	Compound	IC50 at 48 h (PBML cytotoxicity (MTT); ConA stimulated PBML) [µM]	IC50 at 48 h (PBML cytotoxicity (MTT); PWM stimulated PBML) [µM]	IC50 at 48 h (PBML cytotoxicity (MTT); Resting PBML) [µM]	inhibition at 100 µM [1] [%]	inhibition at 10 µM [1] [%]	inflammation as seen by ear thickness [2]	inhibition at 100 µM [3] [%]	inhibition at 10 µM [3] [%]	IC50 [4, 5] [µM]	potency compared to methotrexate ([2]; FIGS. 6 and 7)
–	–	–	Oc1ccc(CCNc2nc(NCCNc3nc(NCCc4ccc(O)cc4)nc(Nc4ccccc4)n3)nc(Nc3ccccc3)n2)cc1 [Compound 1]	8.7	> 10	> 10	46	28.9	significant reduction of the inflammation	63.3	38.4	50	–
0.06	0.0035	0.088	Nc1ccc(CCNc2nc(Nc3ccc(CCNc4nc(NCCO)nc(Nc5cccc(N)c5)n4)cc3)nc(Nc3cccc(N)c3)n2)cc1 [Compound 19a]	6.8	> 10	≥ 10	13.3	-4	significant reduction of the inflammation	27.4	24.3	0.003	equipotent to methotrexate
